Source: patent US20250049800A1, “VCP/p97 INHIBITOR FOR THE TREATMENT OF CANCER” (CASI Pharmaceuticals, Inc., priority 2021, published 2025)

Experiments:
K48-Ub (ubiquitin) = K48-Ub (ubiquitin) biomarker in patient blood samples; type: in vivo, human; details: cohorts 4 and 5; two of 5 patients showed changes
Method: (§1) Two biomarkers were assessed in patients from cohorts 4 and 5. K48-Ub (ubiquitin) and Activated Caspase 3 biomarkers were analyzed from 5 patient blood samples.

DU4475 (Breast) = test: Cell Titer-Glo viability: single agent IC50 and Compound 1 + PARP inhibitor matrix (Bliss); type: cell-based; details: Homo sapiens, DU-4475, 72 h, single agent, read-out: Absolute IC50
Method: (§2) The PARP inhibitors used for the study were talazoparib, olaparib and niraparib. […] was used as a reference control. […] For each drug agent on its own, IC50 values in each cell line were determined. Interactions of the combinations of Compound 1 and each PARP inhibitor was assessed as follows: […] Cisplatin and culture media were used as positive and negative control, respectively. The combination activities were assessed using CrownSyn software to determine synergy scores by Bliss Independence and Loewe additivity methods. […] Synergy scores calculated by both Bliss independence model and Loewe additivity model (see Greco, […]., Poch, G., Suhnel, J., Kundi, M., & Bodeker, W. (1992). Consensus on concepts and terminology for combined-action assessment: the […] agreement. […] Without being bound by theory, the Bliss independence model is often applied to asses synergy for non-interacting drugs that elicit their responses independently, e.g., by targeting separate pathways, whereas the Loewe additivity model may be more compatible where both drugs have similar modes of action on the same targets or pathways.

OVCAR-8 (Ovary) = test: as above; type: cell-based; details: Homo sapiens, 72 h, single agent, read-out: Absolute IC50
Method: as §2

HCC1806 (Breast) = test: as above; type: cell-based; details: Homo sapiens, 72 h, single agent, read-out: Absolute IC50
Method: as §2

MX-1 (Breast) = test: as above; type: cell-based; details: single agent, read-out: Absolute IC50
Method: as §2

HCC1937 (Breast) = test: as above; type: cell-based; details: Homo sapiens, single agent, read-out: Absolute IC50
Method: as §2

IGR-OV1 (Ovary) = test: as above; type: cell-based; details: Homo sapiens, IGROV-1, 72 h, single agent, read-out: Absolute IC50
Method: as §2

HCC1395 (Breast) = test: as above; type: cell-based; details: Homo sapiens, 72 h, single agent, read-out: Absolute IC50
Method: as §2

SK-OV-3 (Ovary) = test: as above; type: cell-based; details: Homo sapiens, single agent, read-out: Absolute IC50
Method: as §2

Capan-1 (Pancreas) = test: as above; type: cell-based; details: Homo sapiens, 72 h, single agent, read-out: Absolute IC50
Method: as §2

[1] = system: DoTc2 4510 (Uterus/Cervix); test: as above; type: cell-based; details: Homo sapiens, single agent, read-out: Absolute IC50
Method: as §2

Activated Caspase 3 = Activated Caspase 3 biomarker in patient blood samples; type: in vivo, human; details: cohorts 4 and 5; one patient
Method: as §1

## Cc1cc2c(C(N)=O)cccc2n1-c1nc2c(c(NCc3ccccc3)n1)CCCN2 [Compound 1, 1-(4-(benzylamino)-5,6,7,8-tetrahydropyrido[2,3-d]pyrimidin-2-yl)-2-methyl-1H-indole-4-carboxamide]
K48-Ub (ubiquitin)
  K48-Ub (ubiquitin) biomarker, best fold change after treatment: approximately 3.5 fold
DU4475 (Breast)
  IC50: 343 nM
OVCAR-8 (Ovary)
  IC50: 200 nM
HCC1806 (Breast)
  IC50: 437 nM
MX-1 (Breast)
  IC50: 409 nM
HCC1937 (Breast)
  IC50: 559 nM
IGR-OV1 (Ovary)
  IC50: 279 nM
HCC1395 (Breast)
  IC50: 201 nM
SK-OV-3 (Ovary)
  IC50: 1790 nM
Capan-1 (Pancreas)
  IC50: 405 nM
[1]
  IC50: 513 nM
Activated Caspase 3
  Activated Caspase 3, fold increase: 9 fold
